Converted amounts (≈) assume the structure as drawn.
Key:
[1] = tested on: A. baumannii AR-0313; assay: MIC, broth microdilution (CLSI); format: cell-based; conditions: Acinetobacter baumannii, AR0313; A. baumannii AR-0313 clinical isolate; † = dose-independent trailing growth
Experimental: (§1) II. Materials and Methods for Biological Experiments
(§2) S. aureus ATCC 29213 and E. coli MG1655 were obtained from the American Type Culture Collection (ATCC). E. coli BW25113 and E. coli JW5503 were obtained from the Keio Collection. AR-bank strains were obtained from the Centers for Disease Control and Prevention and FDA Antibiotic Resistance Isolate Bank.
(§3) Antimicrobial susceptibility tests
(§4) Susceptibility testing was performed in biological triplicate, unless noted otherwise, using the micro-dilution broth method as outlined by the Clinical and Laboratory Standards Institute. Bacteria were cultured with cation-adjusted Mueller Hinton broth (Sigma Aldrich, catalogue number: 90922). […]
(§5) Error bars represent the standard error of the mean of three biological replicates. All compounds evaluated in biological assays were ≥95% pure.

[2] = tested on: K. pneumoniae AR-0113; assay: MIC, broth microdilution (CLSI); format: cell-based; conditions: Klebsiella pneumoniae, AR0113; K. pneumoniae AR-0113 clinical isolate
Experimental: as §1, §2, §3, §4, §5

[3] = tested on: panel of 10 clinical isolates (two E. coli, four K. pneumoniae, four A. baumannii); assay: MIC, Gram-negative clinical isolate challenge panel; format: cell-based; conditions: 10 clinical isolates; read-out: MIC, all strains of the clinical isolate challenge panel
[4] = tested on: E. coli ΔtolC (JW5503); assay: MIC, broth microdilution (CLSI); format: cell-based, Escherichia coli
Experimental: as §1, §2, §3, §4
(§6) NH3: m/z 391.2 → 171.0. Fabimycin: m/z 405.3 → 145.3. Power analysis was not used to determine the number of replicates. Error bars represent the standard error of the mean of three biological replicates. All compounds evaluated in biological assays were ≥95% pure.

[5] = tested on: E. coli MG1655; assay: MIC, broth microdilution (CLSI); format: cell-based; conditions: Escherichia coli
Experimental: as §1, §2, §3, §4, §6

[6] = tested on: A. baumannii AR-0273; assay: MIC, broth microdilution (CLSI); format: cell-based; conditions: Acinetobacter baumannii, AR0273; A. baumannii AR-0273 clinical isolate
Experimental: as §1, §2, §3, §4, §6

[7] = tested on: K. pneumoniae AR-0066; assay: MIC, broth microdilution (CLSI); format: cell-based; conditions: Klebsiella pneumoniae, AR0066; K. pneumoniae AR-0066 clinical isolate
Experimental: as §1, §2, §3, §4, §6

[8] = tested on: E. coli AR-0085; assay: MIC, broth microdilution (CLSI); format: cell-based; conditions: Escherichia coli, AR0085; E. coli AR-0085 clinical isolate
Experimental: as §1, §2, §3, §4, §6

[9] = tested on: K. pneumoniae BAA-2472; assay: MIC, broth microdilution (CLSI); format: cell-based; conditions: Klebsiella pneumoniae, BAA2472
Experimental: as §1, §2, §3, §4, §6

[10] = tested on: E. coli AR-0048; assay: MIC, broth microdilution (CLSI); format: cell-based; conditions: Escherichia coli, AR0048; E. coli AR-0048 clinical isolate
Experimental: as §1, §2, §3, §4, §6

[11] = tested on: A. baumannii AR-0299; assay: MIC, broth microdilution (CLSI); format: cell-based; conditions: Acinetobacter baumannii, AR0299; A. baumannii AR-0299 clinical isolate; † = dose-independent trailing growth
Experimental: as §1, §2, §3, §4, §6

[12] = tested on: S. aureus ATCC 29213; assay: MIC, broth microdilution (CLSI); format: cell-based; conditions: Staphylococcus aureus, ATCC29213; S. aureus 29213
Experimental: as §1, §2, §3, §4, §6

[13] = tested on: K. pneumoniae AR-0560; assay: MIC, broth microdilution (CLSI); format: cell-based; conditions: Klebsiella pneumoniae, AR0560; K. pneumoniae AR-0560 clinical isolate
Experimental: as §1, §2, §3, §4, §6

[14] = tested on: A. baumannii AR-0033; assay: MIC, broth microdilution (CLSI); format: cell-based; conditions: Acinetobacter baumannii, AR0033; A. baumannii AR-0033 clinical isolate; † = dose-independent trailing growth
Experimental: as §1, §2, §3, §4, §6

[15] = tested on: E. coli MG1655; parameters: method as in PMID 31740764; conditions: cited from earlier work
[16] = molecular target: A. baumannii FabI (Acinetobacter baumannii, UniProt D0CAD5); assay: In vitro FabI enzymatic inhibition assay; format: biochemical; conditions: AbFabI; Morrison's quadratic fit; 5 nM enzyme; read-out: Ki app
A. baumannii FabI, sequence (D0CAD5 entry or part of it): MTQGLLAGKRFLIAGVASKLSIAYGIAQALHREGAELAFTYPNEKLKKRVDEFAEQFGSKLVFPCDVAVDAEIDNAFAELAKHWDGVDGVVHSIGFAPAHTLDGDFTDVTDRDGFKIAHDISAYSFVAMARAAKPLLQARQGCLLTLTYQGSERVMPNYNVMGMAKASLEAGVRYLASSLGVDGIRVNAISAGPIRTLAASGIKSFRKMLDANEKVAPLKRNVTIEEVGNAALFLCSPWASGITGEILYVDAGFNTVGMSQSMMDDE
Experimental: (§7) supplemented with 100 µg/mL ampicillin at 37°C until OD600 reached 0.6-0.7. The cells were induced with 1mM IPTG and incubated for 20 hours at 18°C and spun down at 8000 rpm for 15 minutes. Cell pellet was resuspended in the lysis buffer (50 mM Tris-HCl pH 8.0, 500 mM Na Cl, 20 mM imidazole, 10% glycerol, 0.5 mM TCEP, protease inhibitor and Lysonase) and passed through microfluidizer followed by centrifugation and filtration to remove cell debris. The clarified lysate was supplemented with 20 mM imidazole and passed over a HisTrap column (Cytiva) pre-equilibrated with the wash buffer (50 mM Tris-HCl pH 8.0, 500 mM NaCl, 20 mM imidazole, 10% glycerol, 0.5 mM TCEP). The column was washed with the wash buffer and eluted over a 20-500 mM imidazole gradient. The appropriate fractions were pooled, and the histidine tag was removed by TEV cleavage. The protein mixture was passed over a HisTrap column to separate the cleaved protein from the uncleaved ones. The cleaved protein was pooled and passed over an S75 size exclusion column (GE LifeSciences) pre-equilibrated with 50 mM Tris-HCl pH 8.0, 500 mM NaCl, 0.5 mM TCEP and 10% glycerol. Fractions containing pure protein were pooled, concentrated at 10 mg/mL and stored at -80°C. […]
(§8) In vitro FabI enzymatic inhibition assay
(§9) Recombinant E. coli and A. baummani FabI enzymes were used in a continuous NADH absorbance assay (20 µL in 384w format). Compounds and the Crotonyl-CoA substrate (Sigma–Aldrich 28007) were dispensed into a plate (GeinerBio-One 781101). The reaction was initiated by the addition of a reaction master mix solution containing enzyme and NADH (Sigma–Aldrich N8129) suspended in reaction buffer (50 mM HEPES pH 7.4, 150 mM NaCl, 1 mM EDTA, 0.01 mg/mL BSA, 0.01% Tween). Final concentrations were 5 nM enzyme, 150 μM Crotonyl-CoA, 380 μM NADH, 0.05% DMSO in 1x reaction buffer. After shaking for 5 seconds the reaction was monitored at NADH absorbance (340nm, 25°C) using a Molecular Devices SpectraMax M5 microplate reader. The linear portion of the progress curve was fit using plate-reader software. Percentage activity was calculated relative to DMSO only and no-substrate controls in each plate and the data were fit to Morrison’s quadratic using Graphpad Prism 9.3 to obtain apparent inhibition constant (Ki app) values. […]
(§10) 480 Real-Time PCR System as a function of a temperature ramp (25-95°C; 0.1°/s) and the Tm was calculated using the […]

[17] = molecular target: T1, E. coli FabI (Escherichia coli, UniProt P0AEK4); assay: In vitro FabI enzymatic inhibition assay; format: biochemical; conditions: EcFabI; Morrison's quadratic fit; 5 nM enzyme; read-out: Ki app
T1 construct: His(6) with TEV site (cleaved yes); made in house; host or cells: E. coli BL21(DE3)
T1 sequence (P0AEK4 whole entry): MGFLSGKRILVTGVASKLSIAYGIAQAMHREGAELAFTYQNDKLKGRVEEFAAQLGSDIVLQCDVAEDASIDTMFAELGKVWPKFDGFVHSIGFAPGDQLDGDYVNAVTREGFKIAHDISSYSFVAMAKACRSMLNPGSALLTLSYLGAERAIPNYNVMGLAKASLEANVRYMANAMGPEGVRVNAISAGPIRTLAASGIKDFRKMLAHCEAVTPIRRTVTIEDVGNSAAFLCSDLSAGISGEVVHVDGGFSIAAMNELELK
Experimental: as §7, §8, §9, §10

[18] = tested on: A. baumannii clinical isolates (n=100); assay: MIC50/MIC90, clinical isolate panel; format: cell-based; conditions: Acinetobacter baumannii; A. baumannii (n=100) clinical isolates
[19] = tested on: K. pneumoniae clinical isolates (n=100); assay: MIC50/MIC90, clinical isolate panel; format: cell-based; conditions: Klebsiella pneumoniae; K. pneumoniae (n=100) clinical isolates
Text: Figure 4 Antimicrobial activity of fabimycin against clinical isolates. (A) The susceptibility of clinical isolates (Gram-negative species and S. aureus) to fabimycin, Debio-1452-NH3, and Debio-1452. MICs performed in biological triplicate. (B) Further exploration of the breadth of fabimycin’s antibacterial activity against diverse clinical isolate panels of K. pneumoniae and A. baumannii, as compared to levofloxacin. MICs performed in biological duplicate.
as §1, §2, §3, §4, §5

[20] = parameters: method as in earlier work; conditions: mice, 20% SBE-β-CD in H2O, IP, ref 19 (SI ref 3), cited from earlier work
[21] = E. coli ΔtolC = JW5503, efflux-deficient

SMILES	MIC [1]	MIC [2]	MIC ([4]; Escherichia coli)	MIC [5]	MIC [6]	MIC [7]	MIC [8]	MIC [9]	MIC [10]	MIC [11]	MIC [12]	MIC [13]	MIC [14]	accumulation in Gram-negative bacteria (class in Figure 1A) [15]	Ki [16]	Ki [17]	MIC [4, 21]	other results
Cc1c(CN(C)C(=O)/C=C/c2cnc3c(c2)CCC(N)C(=O)N3)oc2ccccc12 (racemic) [(±)-7]	8 µg/mL (≈ 19.8 µM)	8 µg/mL (≈ 19.8 µM)	0.031 µg/mL (≈ 0.0766 µM)	4 µg/mL (≈ 9.89 µM)	8 µg/mL (≈ 19.8 µM)	8 µg/mL (≈ 19.8 µM)	4 µg/mL (≈ 9.89 µM)	8 µg/mL (≈ 19.8 µM)	4 µg/mL (≈ 9.89 µM)	4 µg/mL (≈ 9.89 µM)	0.016 µg/mL (≈ 0.0396 µM)	8 µg/mL (≈ 19.8 µM)	4 µg/mL (≈ 9.89 µM)	–	–	–	–	MIC [3]: ≤ 8 µg/mL
Cc1c(CN(C)C(=O)/C=C/c2cnc3c(c2)CC2(CC(CN)C2)C(=O)N3)oc2ccccc12 (racemic) [(±)-4]	–	–	0.125 µg/mL (≈ 0.281 µM)	16 µg/mL (≈ 36 µM)	–	–	–	–	–	–	0.031 µg/mL (≈ 0.0697 µM)	–	–	–	–	–	–	–
Cc1c(CN(C)C(=O)/C=C/c2cnc3c(c2)CCC(=O)N3)oc2ccccc12 [Debio-1452, reference compound]	> 32 µg/mL	> 32 µg/mL	–	–	> 32 µg/mL	> 32 µg/mL	> 32 µg/mL	> 32 µg/mL	> 32 µg/mL	> 32 µg/mL	–	> 32 µg/mL	> 32 µg/mL	Non-accumulator	431 ± 85 nM	97 ± 19 nM	0.062 µg/mL (≈ 0.165 µM)	–
C[C@H]1COc2c(N3CCN(C)CC3)c(F)cc3c(=O)c(C(=O)O)cn1c23 [levofloxacin, reference compound]	–	–	–	–	–	–	–	–	–	–	–	–	–	–	–	–	–	MIC50 [18]: 4 µg/mL (≈ 11.1 µM); MIC90 [18]: 32 µg/mL (≈ 88.6 µM); MIC50 [19]: 0.5 µg/mL (≈ 1.38 µM); MIC90 [19]: 32 µg/mL (≈ 88.6 µM)
Cc1c(CN(C)C(=O)/C=C/c2cnc3c(c2)CC2(CC(N)C2)C(=O)N3)oc2ccccc12 (racemic) [(±)-3]	32 µg/mL (≈ 74.3 µM)	16 µg/mL (≈ 37.2 µM)	0.062 µg/mL (≈ 0.144 µM)	4 µg/mL (≈ 9.29 µM)	16 µg/mL (≈ 37.2 µM)	8 µg/mL (≈ 18.6 µM)	16 µg/mL (≈ 37.2 µM)	8 µg/mL (≈ 18.6 µM)	16 µg/mL (≈ 37.2 µM)	16 µg/mL (≈ 37.2 µM)	0.016 µg/mL (≈ 0.0372 µM)	8 µg/mL (≈ 18.6 µM)	16 µg/mL (≈ 37.2 µM)	–	–	–	–	–
Cc1c(CN(C)C(=O)/C=C/c2cnc3c(c2)CC(N)C(=O)N3)oc2ccccc12 (stereo not shown) [Debio-1452-NH3, reference compound]	32 µg/mL (≈ 82 µM)	32 µg/mL (≈ 82 µM)	–	–	32 µg/mL (≈ 82 µM)	32 µg/mL (≈ 82 µM)	16 µg/mL (≈ 41 µM)	16 µg/mL (≈ 41 µM)	32 µg/mL (≈ 82 µM)	32 µg/mL (≈ 82 µM)	–	32 µg/mL (≈ 82 µM)	32 µg/mL (≈ 82 µM)	Accumulator	13 ± 2 nM	9 ± 1 nM	0.062 µg/mL (≈ 0.159 µM)	Multi-day QD dosing, MTD ([20]; 5d): 50 mg/kg; Single-dose MTD [20]: 50 mg/kg
